According to ChEMBL document CHEMBL1201862, “PubChem BioAssay data set” (2004):
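Cultured in 96-well plates, cells were exposed to test compound for 48 hours across five concentrations. The concentration for 50% growth inhibition is given as GI50.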 Active and inactive are the calls of the source. Cut-off read from the data, not from the text of the source: active = GI50 up to about 1.1 µM and inactive = higher.

Assays:
Assay in all cases: DTP human tumour cell line panel, 48 h
SK-OV-3 = tested on: SK-OV-3
ACHN = tested on: ACHN
IGROV-1 = tested on: IGROV-1
MOLT-4 = tested on: MOLT-4
KM12 = tested on: KM12
UACC-257 = tested on: UACC-257
EKVX = tested on: EKVX
786-0 = tested on: 786-0
CAKI-1 = tested on: CAKI-1
UO-31 = tested on: UO-31
SK-MEL-5 = tested on: SK-MEL-5
PC-3 = tested on: PC-3
MDA-N = tested on: MDA-N
LOX IMVI = tested on: LOX IMVI
OVCAR-3 = tested on: OVCAR-3
HL-60 = tested on: HL-60
HOP-62 = tested on: HOP-62
SF-539 = tested on: SF-539
DU-145 = tested on: DU-145
Malme-3M = tested on: Malme-3M

Structure (SMILES)	GI50 (SK-OV-3)	GI50 (ACHN)	GI50 (IGROV-1)	GI50 (MOLT-4)	GI50 (KM12)	GI50 (UACC-257)	GI50 (EKVX)	GI50 (786-0)	GI50 (CAKI-1)	GI50 (UO-31)	GI50 (SK-MEL-5)	GI50 (PC-3)	GI50 (MDA-N)	GI50 (LOX IMVI)	GI50 (OVCAR-3)	GI50 (HL-60)	GI50 (HOP-62)	GI50 (SF-539)	GI50 (DU-145)	GI50 (Malme-3M)
CC(C)(C)OC(=O)N1C(c2cccnc2)=CC[C@H]2C3CC=C(c4cccnc4)[C@@]3(C)CC[C@@H]21 (some centres undefined)	4.54 µM (inactive)	3.46 µM (inactive)	4.16 µM (inactive)	2.54 µM (inactive)	4.06 µM (inactive)	3.23 µM (inactive)	2.11 µM (inactive)	4.86 µM (inactive)	6.55 µM (inactive)	4.95 µM (inactive)	2.07 µM (inactive)	4.6 µM (inactive)	3.05 µM (inactive)	2.71 µM (inactive)	3.44 µM (inactive)	1.97 µM (inactive)	2.79 µM (inactive)	3.82 µM (inactive)	4.76 µM (inactive)	3.44 µM (inactive)
O=S(=O)(CCCCl)SCCCCl	> 83 µM (inactive)	55.7 µM (inactive)	37.5 µM (inactive)	3.17 µM (inactive)	46.3 µM (inactive)	45.9 µM (inactive)	> 100 µM (inactive)	17.4 µM (inactive)	> 57.1 µM (inactive)	65.5 µM (inactive)	30.7 µM (inactive)	30.1 µM (inactive)	27 µM (inactive)	19.2 µM (inactive)	31.1 µM (inactive)	9.91 µM (inactive)	> 87.5 µM (inactive)	19.4 µM (inactive)	63.8 µM (inactive)	33.6 µM (inactive)
CCOC(=O)CC[C@H](N)C(=O)N[C@H](Cc1ccc(N(CCCl)CCCl)cc1)C(=O)OCC	4.54 µM (inactive)	0.0706 µM (active)	2.71 µM (inactive)	1.18 µM (inactive)	3.32 µM (inactive)	10 µM (inactive)	6.03 µM (inactive)	0.703 µM (active)	0.154 µM (active)	0.419 µM (active)	45.3 µM (inactive)	3.63 µM (inactive)	16.1 µM (inactive)	4.61 µM (inactive)	3.59 µM (inactive)	4.16 µM (inactive)	2.26 µM (inactive)	1.99 µM (inactive)	0.348 µM (active)	4.94 µM (inactive)
CCC1(CCSC(=N)N)C(=O)NC(=O)NC1=O	> 100 µM (inactive)	> 100 µM (inactive)	> 100 µM (inactive)	> 100 µM (inactive)	> 100 µM (inactive)	> 100 µM (inactive)	> 100 µM (inactive)	> 100 µM (inactive)	> 100 µM (inactive)	> 100 µM (inactive)	> 100 µM (inactive)	> 100 µM (inactive)	> 100 µM (inactive)	> 100 µM (inactive)	> 100 µM (inactive)	48.9 µM (inactive)	> 100 µM (inactive)	> 100 µM (inactive)	> 100 µM (inactive)	> 100 µM (inactive)
O=[N+]([O-])/C=C/c1cn(CCCCCCCCCCCCn2cc(/C=C/[N+](=O)[O-])c3ccccc32)c2ccccc12	> 100 µM (inactive)	> 100 µM (inactive)	> 100 µM (inactive)	> 100 µM (inactive)	> 100 µM (inactive)	> 100 µM (inactive)	> 100 µM (inactive)	> 100 µM (inactive)	> 100 µM (inactive)	> 100 µM (inactive)	> 100 µM (inactive)	> 100 µM (inactive)	> 100 µM (inactive)	> 100 µM (inactive)	> 100 µM (inactive)	> 100 µM (inactive)	> 100 µM (inactive)	> 100 µM (inactive)	> 100 µM (inactive)	> 100 µM (inactive)
C/C(=N/NC(=S)N1CCCCC1)c1cccc(/C(C)=N\NC(=S)N2CCCCC2)n1	1.91 µM (inactive)	1.46 µM (inactive)	1.94 µM (inactive)	2.4 µM (inactive)	2.33 µM (inactive)	2.85 µM (inactive)	2.13 µM (inactive)	2.01 µM (inactive)	2.08 µM (inactive)	1.45 µM (inactive)	1.95 µM (inactive)	1.65 µM (inactive)	1.51 µM (inactive)	2.07 µM (inactive)	2.21 µM (inactive)	1.84 µM (inactive)	4.71 µM (inactive)	1.92 µM (inactive)	2.23 µM (inactive)	2.29 µM (inactive)
COc1cc(Cn2c3c(c4c(CN(C)C)c(O)ccc42)C(=O)c2ccccc2C3=O)cc(OC)c1	20.1 µM (inactive)	15.3 µM (inactive)	–	24.4 µM (inactive)	26.4 µM (inactive)	22.8 µM (inactive)	20 µM (inactive)	12.5 µM (inactive)	13 µM (inactive)	14.6 µM (inactive)	11.9 µM (inactive)	21 µM (inactive)	15.7 µM (inactive)	16.6 µM (inactive)	24.2 µM (inactive)	22.4 µM (inactive)	15.7 µM (inactive)	16.3 µM (inactive)	21.7 µM (inactive)	23.2 µM (inactive)
